ChEMBL document CHEMBL1124973 (J Med Chem, 1990)

Experiments:
[1] = target: T1, Muscarinic acetylcholine receptor (Rattus norvegicus) (UniProt P08482+P08483+P08485+P08911+P10980)
Description: In vitro binding affinity against muscarinic acetylcholine receptor from rat cortical homogenates using [3H]N-methylscopolamine as radioligand

[2] = target: T1, Muscarinic acetylcholine receptor (Rattus norvegicus); remark: listed apart in the source
Description: In vitro binding affinity against muscarinic acetylcholine receptor from rat cortical homogenates using [3H]oxotremorine-M radioligand

[3] = target: T1, Muscarinic acetylcholine receptor (Rattus norvegicus); assay: The selectivity ratio of Kapp of NMS/OXO -M; assay type: protein assay
[4] = pKa value was measured; assay type: physicochemical

| Ratio [3] | pKa [4] | Compound | K app [1] [µM] | K app [2] [µM] |
| --- | --- | --- | --- | --- |
|  |  | Cc1noc(C2CN3CCC2C3)n1 (stereo in doubt; 15b) | 3.6 | 0.0021 |
|  |  | Cc1noc(C2CC3CCC2NC3)n1 (stereo in doubt; 22a) | 1.1 | 0.0032 |
|  |  | Cc1noc(C2=CCCNC2)n1 | 2.4 | 0.0016 |
| > 6.6 | 6.2 | Cc1noc(C2CN(C)CCN2)n1 (stereo not given) | > 50 | 7.6 |
|  |  | Cc1noc(C2CC3CCC2N(C)C3)n1 (stereo in doubt; 23b) | 29 | 0.95 |
|  |  | Cc1noc(C2CCCN(C)C2)n1 (stereo not given) | 54 | 0.43 |
|  |  | CN1CCC=C(c2nc(N)no2)C1 | 2.8 | 0.0026 |
|  |  | Cc1noc(C2CC3CCC2NC3)n1 (stereo in doubt; 22b) | 5.2 | 0.0025 |
|  |  | Cc1noc(C2=CCCN(C)C2)n1 | 2.1 | 0.0054 |
|  |  | Nc1noc(C2CN3CCC2C3)n1 (stereo in doubt; 16b) | 1.6 | 0.0015 |
|  |  | CN1CCCC(c2nc(N)no2)C1 (stereo not given) | 53 | 0.24 |
|  | 7.1 | Cc1noc(C2CNCCN2)n1 (stereo not given) | > 50 | 0.64 |
| > 5.5 | 6.2 | CN1CCNC(c2nc(N)no2)C1 (stereo not given) | > 50 | 9.1 |
|  | 5.6 | Cc1noc(CN(C)C)n1 | > 50 | 3.3 |
|  |  | Nc1noc(C2CN3CCCC2C3)n1 (stereo in doubt; 17a) | 0.77 | 0.00067 |
|  |  | Nc1noc(C2CN3CCC2CC3)n1 (stereo not given) | 0.6 | 0.00047 |
| > 100 | 7.1 | Nc1noc(C2CNCCN2)n1 (stereo not given) | > 50 | 0.45 |
|  |  | Cc1noc(C2CN3CCC2C3)n1 (stereo in doubt; 15a) | 0.1 | 9e-05 |
|  |  | Cc1noc(C2CC3CCC2N(C)C3)n1 (stereo in doubt; 23a) | 8.9 | 0.3 |
|  |  | Cc1noc(C[N+](C)(C)C)n1 | 3.6 | 0.0014 |
|  |  | Cc1noc(C2CCCCN(C)C2)n1 (stereo not given) | 18 | 0.73 |
|  | 6 | CN1CCN(C)C(c2nc(N)no2)C1 (stereo not given) | > 50 | > 14 |
|  |  | C[N+](C)(C)CCOC(N)=O | 22 | 0.0049 |
|  |  | Cc1noc(C2CCN(C)C2)n1 (stereo not given) | 27 | 0.024 |
|  |  | Nc1noc(C2=CCCNC2)n1 | 3.3 | 0.0017 |
|  |  | Cc1noc(C2CN3CCC2CC3)n1 (stereo not given) | 0.44 | 0.00096 |
|  |  | CN1CCC(c2nc(N)no2)C1 (stereo not given) | 17 | 0.01 |
|  |  | Nc1noc(C2CCNC2)n1 (stereo not given) | 21 | 0.04 |
|  |  | Nc1noc(C2CN3CCC2C3)n1 (stereo in doubt; 16a) | 0.031 | < 4.3e-05 |
|  |  | Nc1noc(C2CN3CCCC2C3)n1 (stereo in doubt; 17b) | 1.8 | 0.003 |

| Compound | Ratio [3] | pKa [4] | K app [1] [µM] | K app [2] [µM] |
| --- | --- | --- | --- | --- |
| Cc1noc(C2CN3CCN2CC3)n1 (stereo not given) |  | 6 | 36 | 0.44 |
| Nc1noc(C2CN3CCN2CC3)n1 (stereo not given) |  | 6.3 | > 50 | 0.13 |
